Source: patent US7186831B2, “5-halo-2-alkyl[1,2,4]triazolo[1,5-a]pyrimidin-7-amines” (priority 2001, dated 2007)

assay: log P by HPLC; format: physicochemical; conditions: EEC directive 79/831 Annex V. A8 by HPLC (gradient method, acetonitrile/0.1% aqueous phosphoric acid)

SMILES	logP
CCOC(=O)CN(c1c(-c2ccc(F)cc2F)c(Cl)nc2nc(C)nn12)C1CC1 [compound 414]	3.29
Cc1nc2nc(Cl)c(-c3ccccc3F)c(NOCc3ccccc3Cl)n2n1 [compound 366]	3.21
CCCN(CC1CCCO1)c1c(-c2c(F)cccc2Cl)c(Cl)nc2nc(C)nn12 (stereo not drawn) [compound 277]	3.72
Cc1nc2nc(Cl)c(-c3ccc(F)cc3F)c(N3CCSCC3)n2n1 [compound 297]	2.97
Clc1ccccc1-c1c(Cl)nc2nc(C3CC3)nn2c1N1CCCCO1 [compound 484]	3.71
Cc1nc2nc(Cl)c(-c3ccccc3F)c(NOC(C)(C)C)n2n1 [compound 374]	2.75
CCCN(CCOC)c1c(-c2c(F)cccc2F)c(Cl)nc2nc(C)nn12 [compound 348]	3.12
Cc1nc2nc(Cl)c(-c3ccc(F)cc3F)c(N(C)CCN(C)C)n2n1 [compound 350]	1.23
Cc1nc2nc(Cl)c(-c3ccc(F)cc3F)c(N(C)CC#N)n2n1 [compound 412]	2.34
Cc1nc2nc(Cl)c(-c3c(F)cccc3F)c(NCC(C)C)n2n1 [compound 328]	2.85
Cc1nc2nc(Cl)c(-c3ccc(F)cc3F)c(NC(C)C(F)(F)F)n2n1 (single isomer, unassigned) [compound 359]	2.95
CCN(CCC#N)c1c(-c2ccc(F)cc2F)c(Cl)nc2nc(C)nn12 [compound 413]	2.58
Cc1nc2nc(Cl)c(-c3ccccc3F)c(N3CCCCC3)n2n1 [compound 384]	3.19
Cc1ccc(Nc2c(-c3c(F)cccc3F)c(Cl)nc3nc(C)nn23)cc1 [compound 444]	3.01
Cc1nc2nc(Cl)c(-c3c(F)cccc3F)c(N3CCCc4ccccc43)n2n1 [compound 446]	3.34
Cc1nc2nc(Cl)c(-c3c(F)cccc3F)c(N3CCC(Br)CC3)n2n1 [compound 319]	3.33
CC(C)(C)CNc1c(-c2c(F)cc(F)cc2F)c(Cl)nc2nc(C3CC3)nn12 [compound 461]	4.19
C[C@H](Nc1c(-c2ccc(F)cc2F)c(Cl)nc2nc(C3CC3)nn12)C(F)(F)F (single isomer, unassigned) [compound 489]	3.51

Next, values leading:

logP	SMILES
3.52	C[C@H](Nc1c(-c2ccc(F)cc2F)c(Cl)nc2nc(C3CC3)nn12)C(F)(F)F (single isomer, unassigned) [compound 490]
3.87	Fc1ccc(-c2c(Cl)nc3nc(C4CC4)nn3c2N2CCc3ccccc3C2)c(F)c1 [compound 522]

same assay, conditions: HPLC

chromatographic logP	SMILES
3.71	Fc1cc(F)c(-c2c(Cl)nc3nc(C(F)(F)F)nn3c2Cl)c(F)c1 [Example 819, 5,7-dichloro-2-(trifluoromethyl)-6-(2,4,6-trifluorophenyl)[1,2,4]triazolo[1,5-a]pyrimidine]

same assay, conditions: HPLC, gradient method, acetonitrile/0.1% aqueous phosphoric acid; EEC directive 79/831 Annex V. A8

SMILES	logP
CCOC(=O)CN(CC)c1c(-c2c(F)cc(F)cc2F)c(Cl)nc2nc(C)nn12 [compound 160]	3.14
CCN(CC1CCCO1)c1c(-c2ccccc2Cl)c(Cl)nc2nc(C)nn12 (stereo not drawn) [compound 239]	3.23
CCC(C)Nc1c(-c2c(F)cc(F)cc2F)c(Cl)nc2nc(C)nn12 (stereo not drawn) [compound 147]	3.1
Cc1nc2nc(Cl)c(-c3c(F)cccc3F)c(NC3CC(C(F)(F)F)CC(C(F)(F)F)C3)n2n1 (stereo not drawn) [compound 189]	3.62
COC(=O)C(CO)Nc1c(-c2c(F)cc(F)cc2F)c(Cl)nc2nc(C)nn12 (stereo not drawn) [compound 115]	1.93
Cc1nc2nc(Cl)c(-c3ccccc3Cl)c(NCC(C)(C)C)n2n1 [compound 211]	3.57
CCC(C)ONc1c(-c2c(F)cccc2F)c(Cl)nc2nc(C)nn12 (stereo not drawn) [compound 139]	2.78
Cc1nc2nc(Cl)c(-c3c(F)cc(F)cc3F)c(N3CCC(C)CC3)n2n1 [compound 166]	3.9
Cc1nc2nc(Cl)c(-c3ccccc3Cl)c(N(C)Cc3ccco3)n2n1 [compound 238]	3.2
CCCCN(CC)c1c(-c2ccccc2Cl)c(Cl)nc2nc(C)nn12 [compound 241]	4.1
C=C(C)CN(C)c1c(-c2c(F)cc(F)cc2F)c(Cl)nc2nc(C)nn12 [compound 155]	3.55
Cc1nc2nc(Cl)c(-c3ccc(F)c(Cl)c3)c(NC(C)C(F)(F)F)n2n1 (stereo not drawn) [compound 97]	3.32
Cc1nc2nc(Cl)c(-c3c(F)cc(F)cc3F)c(N3CCCCC3C)n2n1 (stereo not drawn) [compound 164]	3.81
Cc1nc2nc(Cl)c(-c3ccccc3Cl)c(N3CCC(C)CC3)n2n1 [compound 230]	3.94
Cc1nc2nc(Cl)c(-c3c(F)cccc3Cl)c(N3CCCCC3)n2n1 [compound 254]	3.55
Cc1nc2nc(Cl)c(-c3c(F)cccc3F)c(NC(C)C3CCCCC3)n2n1 (stereo not drawn) [compound 185]	4
CCc1nc2nc(Cl)c(-c3c(F)cc(F)cc3F)c(NC3CCCC3)n2n1 [compound 75]	3.66

Results, then the compound that gave them:

logP	SMILES
4.15	CC1C=CC(C)N1c1c(-c2c(F)cccc2Cl)c(Cl)nc2nc(C3CC3)nn12 (stereo not drawn) [compound 584]
3.68	Fc1cc(F)c(-c2c(Cl)nc3nc(C4CC4)nn3c2N2CCC(F)CC2)c(F)c1 [compound 675]
3.76	CC1CCCN1c1c(-c2ccc(F)cc2F)c(Cl)nc2nc(C3CC3)nn12 (stereo not drawn) [compound 604]
2.84	Cc1nc2nc(Cl)c(-c3c(F)cccc3F)c(N3CCCCO3)n2n1 [compound 524]
3.9	CCC(C)Nc1c(-c2ccc(F)cc2Cl)c(Cl)nc2nc(C3CC3)nn12 (stereo not drawn) [compound 623]
3.74	CC(C)CN(N)c1c(-c2c(F)cccc2Cl)c(Cl)nc2nc(C3CC3)nn12 [compound 791]
3.81	CCN(CCOC)c1c(-c2ccc(F)cc2Cl)c(Cl)nc2nc(C3CC3)nn12 [compound 631]
3.61	C=CCN(C)c1c(-c2ccc(F)cc2F)c(Cl)nc2nc(C3CC3)nn12 [compound 664]
4.37	Fc1ccc(-c2c(Cl)nc3nc(C4CC4)nn3c2N2CCCCC2)c(Cl)c1 [compound 635]
2.95	COC(=O)CN(C)c1c(-c2ccc(F)cc2F)c(Cl)nc2nc(C3CC3)nn12 [compound 720]
3.68	Cc1nc2nc(Cl)c(-c3ccc(Cl)cc3Cl)c(NCC(C)C)n2n1 [compound 789]
3.62	CN(CC1OCCO1)c1c(-c2ccc(F)cc2F)c(Cl)nc2nc(C(F)(F)F)nn12 [compound 540]
3.05	Fc1cccc(Cl)c1-c1c(Cl)nc2nc(C3CC3)nn2c1N1CCOCC1 [compound 709]
3.46	COCCN(C)c1c(-c2ccc(F)cc2Cl)c(Cl)nc2nc(C3CC3)nn12 [compound 628]
2.56	CC(=O)NC1CCN(c2c(-c3ccc(F)cc3F)c(Cl)nc3nc(C(F)(F)F)nn23)C1 (stereo not drawn) [compound 793]
4.19	CC(Nc1c(-c2ccc(Cl)cc2Cl)c(Cl)nc2nc(C3CC3)nn12)C(F)(F)F (single isomer, unassigned) [compound 711]
3.56	Fc1ccc(-c2c(Cl)nc3nc(C4CC4)nn3c2N2CCCCO2)c(F)c1 [compound 690]
4.4	CC(C)(C)CNc1c(-c2ccc(F)cc2F)c(Cl)nc2nc(C(F)(F)F)nn12 [compound 527]
4.28	CCOC(=O)CN(c1c(-c2ccc(F)cc2F)c(Cl)nc2nc(C(F)(F)F)nn12)C1CC1 [compound 554]
